Measurements published in patent US20220315895A1, “METHODS OF MAKING OLIGOPOTENT AND UNIPOTENT PRECURSORS” (Transfusion Health, LLC, priority 2019, published 2022).

What was measured:
Type in all cases: cell-based, human
CD15+/CD14− cells = experiment: Phagocytosis assay with pHrodo green Staphylococcus aureus Bioparticles (Example 39); details: +Formula I Granulocyte Differentiation Cultures, day 13; 45 minutes at 37° C.
Method: On day 13 of Granulocyte Differentiation Culture, a portion of the culture was removed for in vitro analysis of granulocyte function through two separate assays for phagocytosis and respiratory burst. In the phagocytosis assay, the function of the cultured cells in ingesting bacteria was measured. pHrodo green Staphylococcus aureus Bioparticles (ThermoFisher), which fluoresce only when in an acidic environment such as a cellular phagosome following phagocytosis, were first treated with an opsonizing reagent to mark the particles for phagocytosis. The particles were then added to cells and incubated at 37° C. for 45 minutes. “Ice” control samples were incubated on ice during this period to prevent endocytosis and enable a measure of background fluorescence. Following this incubation, cells were stained with antibodies to CD15 and CD14, washed thoroughly, then analyzed via flow cytometry on an Attune flow cytometer. CD15+/CD14− cells were quantified for presence of phagocytosed particles.

[1] = system: CD34+ cells from cord blood; experiment: HSC Expansion Culture, 14 and 21 days (Example 41)
Method: CD34+ cells from cord blood were purchased from STEMCELL Technologies.
Primary human CD34+ cells were isolated by the supplier from cord blood samples using positive immunomagnetic separation techniques. Cells from two separate samples of cord blood were thawed, gradually brought to room temperature, then washed.
For both samples, cells were primed with an overnight culture in StemSpan with 100 ng/ml each of FLT3L, TPO, SCF, and IL-6. Eighteen hours later (day 1), cells were counted and immunophenotyped (flow cytometry on an Invitrogen Attune N×T cytometer).
The remainder of cells from both samples were placed into “HSC Expansion Culture” for either 14 days (“14-day expansion”) or 21 days (“21-day expansion”). Numbers of cells placed into HSC Expansion Culture were quantified for “Fold Expansion” calculations described below. […]
During Expansion Culture, portions of cells were passaged to one or more larger flasks (75 cm^2 or 225 cm^2) if density of cells was greater than ≥1e5 cells/ml. […] Numbers of cells seeded were recorded for “Fold Expansion” calculations, described below.
Following 21 days in Expansion Culture, a sample was taken from the 21-day expansion flask for counting and analysis of phenotypes (flow cytometry on an Invitrogen Attune N×T cytometer). […] CD34 purity was verified by flow cytometry and counts were recorded for calculation of Per-Assayed-CD34+ Cell Output, described below. […]

[2] = system: CD34+ cells from cord blood; experiment: HSC Expansion Culture, 14 to 64 days (Example 42)
Method: Cryopreserved CD34+ cells from cord blood were purchased from STEMCELL Technologies. Primary human CD34+ cells were isolated by the supplier from cord blood samples using positive immunomagnetic separation techniques. Cells were thawed, gradually brought to room temperature, then washed. Cells were primed for expansion with overnight culture in StemSpan SFEM I with 100 ng/mL each of FLT3L, TPO, SCF, and IL-6. Eighteen-to-twenty-four hours later (day 1), cells were counted and immunophenotyped (flow cytometry on an Invitrogen Attune N×T cytometer). Cells were then placed into “HSC Expansion Culture,” described here, or placed directly into Differentiation Culture with STEMCELL's Myeloid StemSpan Myeloid Expansion Supplement (Granulocyte). Media for expanding CD34+ cell numbers was prepared in StemSpan SFEM II (STEMCELL) and added to duplicate 25 cm^2 flasks (4 ml total volume per flask). Expansion Culture conditions also included an antibiotic solution containing penicillin, streptomycin, and amphotericin B to avoid contamination. Additional media components and concentrations used for the conditions tested were as described above in Table 9. All incubations for Expansion Culture took place at 3% oxygen (controlled by nitrogen) and 5% CO2. During Expansion Culture, samples were taken for cell counting and phenotyping. […]

CC(C)(C)C(=O)Nc1ccc2c(c1)C(O)c1ccccc1-2 (centres unmarked) [Compound 1.010]
CD15+ cells positive for phagocytosed particles (CD15+/CD14− cells): 89%
fold expansion of CD34+ cells ([1]; +Formula I Condition (Compound 1.010 8 μM), 14 days): 35 fold
fold expansion of CD34+ cells ([1]; +Formula I Condition, 21-day expansion): 245 fold
fold expansion in CD34+ cell numbers ([2]; +Formula I conditions (Compound 1.010 8 μM), day 14): about 270 fold
fold expansion in CD34+ cell numbers ([2]; +Formula I conditions, day 64): about 86,000 fold
